# Test results taken from the supplement of paper PMC10307832.
# Assays:
# Experiment in all cases: relative viability (nuclei count vs DMSO), 5 days (fraction); higher = more cells survive
# NCI-H2023 = system: NCI-H2023
# Method in brief: (§1)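 Medians of duplicate plates are given as relative viability. That measure is the nuclei count in treated wells divided by the count in vehicle wells. Counts were taken on 4× images of lung cancer cell lines in 1536-well plates, 5 days after pin-tool dosing the day after seeding with one drug alone or a fixed anchor-drug dose plus five library-drug doses (not always all listed) in √10 steps.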
# UMC-11 = system: UMC-11
# Method in brief: as §1
# NCI-H1395 = system: NCI-H1395
# Method in brief: as §1
# NCI-H1563 = system: NCI-H1563
# Method in brief: as §1
# NCI-H1915 = system: NCI-H1915
# Method in brief: as §1
# CAL-12T = system: CAL-12T
# Method in brief: as §1
# NCI-H1734 = system: NCI-H1734
# Method in brief: as §1
# NCI-H2405 = system: NCI-H2405
# Method in brief: as §1
# HCC-44 = system: HCC-44
# Method in brief: as §1
# A-427 = system: A-427
# Method in brief: as §1
# SW 1573 = system: SW 1573
# Method in brief: as §1
# EPLC-272H = system: EPLC-272H
# Method in brief: as §1
# LCLC-97TM1 = system: LCLC-97TM1
# Method in brief: as §1
# NCI-H2347 = system: NCI-H2347
# Method in brief: as §1
# NCI-H1975 = system: NCI-H1975
# Method in brief: as §1
# COR-L 105 = system: COR-L 105
# Method in brief: as §1
# NCI-H520 = system: NCI-H520
# Method in brief: as §1
# NCI-H838 = system: NCI-H838
# Method in brief: as §1
# HCC-15 = system: HCC-15
# Method in brief: as §1
# NCI-H1792 = system: NCI-H1792
# Method in brief: as §1
# LC-2-ad = system: LC-2-ad
# Method in brief: as §1
structure (smiles),measurement,setting,value
Cc1csc(=NC2CCCCC2)n1/N=C/c1ccc(O)c(O)c1O [MIM1] + CS(=O)(=O)CCNCc1ccc(-c2ccc3ncnc(Nc4ccc(OCc5cccc(F)c5)c(Cl)c4)c3c2)o1 [Lapatinib] (partner 2 µM),relative viability,NCI-H2023; first compound 0.2 µM,0.947
same,relative viability,NCI-H2023; first compound 0.6325 µM,0.716
same,relative viability,NCI-H2023; first compound 2 µM,0.683
same,relative viability,NCI-H2023; first compound 6.325 µM,0.253
same,relative viability,NCI-H2023; first compound 20 µM,0.0707
same,relative viability,UMC-11; first compound 0.2 µM,1.22
same,relative viability,UMC-11; first compound 2 µM,1.17
same,relative viability,UMC-11; first compound 6.325 µM,0.664
same,relative viability,UMC-11; first compound 20 µM,0.181
same,relative viability,NCI-H1395; first compound 0.2 µM,1.14
same,relative viability,NCI-H1395; first compound 0.6325 µM,1.1
same,relative viability,NCI-H1395; first compound 2 µM,0.862
same,relative viability,NCI-H1395; first compound 6.325 µM,0.711
same,relative viability,NCI-H1395; first compound 20 µM,0.515
same,relative viability,NCI-H1563; first compound 0.2 µM,0.903
same,relative viability,NCI-H1563; first compound 0.6325 µM,1.04
same,relative viability,NCI-H1563; first compound 2 µM,0.853
same,relative viability,NCI-H1563; first compound 6.325 µM,0.825
same,relative viability,NCI-H1563; first compound 20 µM,0.462
same,relative viability,NCI-H1915; first compound 0.2 µM,0.996
same,relative viability,NCI-H1915; first compound 0.6325 µM,0.659
same,relative viability,NCI-H1915; first compound 2 µM,0.82
same,relative viability,NCI-H1915; first compound 6.325 µM,0.536
same,relative viability,NCI-H1915; first compound 20 µM,0.357
same,relative viability,CAL-12T; first compound 0.2 µM,0.615
same,relative viability,CAL-12T; first compound 2 µM,0.754
same,relative viability,CAL-12T; first compound 6.325 µM,0.578
same,relative viability,CAL-12T; first compound 20 µM,0.22
same,relative viability,NCI-H1734; first compound 0.2 µM,1.18
same,relative viability,NCI-H1734; first compound 0.6325 µM,0.874
same,relative viability,NCI-H1734; first compound 2 µM,0.971
same,relative viability,NCI-H1734; first compound 6.325 µM,0.823
same,relative viability,NCI-H1734; first compound 20 µM,0.198
same,relative viability,NCI-H2405; first compound 0.2 µM,1.13
same,relative viability,NCI-H2405; first compound 0.6325 µM,1.09
same,relative viability,NCI-H2405; first compound 2 µM,1.12
same,relative viability,NCI-H2405; first compound 6.325 µM,0.854
same,relative viability,NCI-H2405; first compound 20 µM,0.606
same,relative viability,HCC-44; first compound 0.2 µM,1.07
same,relative viability,HCC-44; first compound 0.6325 µM,0.969
same,relative viability,HCC-44; first compound 2 µM,0.798
same,relative viability,HCC-44; first compound 6.325 µM,0.346
same,relative viability,HCC-44; first compound 20 µM,0.128
same,relative viability,A-427; first compound 0.2 µM,1.05
same,relative viability,A-427; first compound 0.6325 µM,1.05
same,relative viability,A-427; first compound 2 µM,0.868
same,relative viability,A-427; first compound 6.325 µM,0.841
same,relative viability,A-427; first compound 20 µM,0.265
same,relative viability,SW 1573; first compound 0.2 µM,1.07
same,relative viability,SW 1573; first compound 0.6325 µM,1.15
same,relative viability,SW 1573; first compound 2 µM,1.08
same,relative viability,SW 1573; first compound 6.325 µM,0.993
same,relative viability,SW 1573; first compound 20 µM,0.83
same,relative viability,EPLC-272H; first compound 0.2 µM,0.884
same,relative viability,EPLC-272H; first compound 0.6325 µM,0.886
same,relative viability,EPLC-272H; first compound 2 µM,0.722
same,relative viability,EPLC-272H; first compound 6.325 µM,0.792
same,relative viability,EPLC-272H; first compound 20 µM,0.528
same,relative viability,LCLC-97TM1; first compound 0.2 µM,1.04
same,relative viability,LCLC-97TM1; first compound 0.6325 µM,0.526
same,relative viability,LCLC-97TM1; first compound 2 µM,0.539
same,relative viability,LCLC-97TM1; first compound 6.325 µM,0.353
same,relative viability,LCLC-97TM1; first compound 20 µM,0.128
same,relative viability,NCI-H2347; first compound 0.2 µM,0.941
same,relative viability,NCI-H2347; first compound 0.6325 µM,1.07
same,relative viability,NCI-H2347; first compound 2 µM,0.999
same,relative viability,NCI-H2347; first compound 6.325 µM,0.59
same,relative viability,NCI-H2347; first compound 20 µM,0.399
same,relative viability,NCI-H1975; first compound 0.2 µM,0.789
same,relative viability,NCI-H1975; first compound 0.6325 µM,0.796
same,relative viability,NCI-H1975; first compound 2 µM,0.875
same,relative viability,NCI-H1975; first compound 6.325 µM,0.537
same,relative viability,NCI-H1975; first compound 20 µM,0.395
same,relative viability,COR-L 105; first compound 0.2 µM,0.371
same,relative viability,COR-L 105; first compound 0.6325 µM,0.331
same,relative viability,COR-L 105; first compound 2 µM,0.373
same,relative viability,COR-L 105; first compound 6.325 µM,0.319
same,relative viability,COR-L 105; first compound 20 µM,0.294
same,relative viability,NCI-H520; first compound 0.2 µM,0.823
same,relative viability,NCI-H520; first compound 0.6325 µM,0.691
same,relative viability,NCI-H520; first compound 2 µM,0.924
same,relative viability,NCI-H520; first compound 6.325 µM,0.691
same,relative viability,NCI-H520; first compound 20 µM,0.269
same,relative viability,NCI-H838; first compound 0.2 µM,0.941
same,relative viability,NCI-H838; first compound 0.6325 µM,0.885
same,relative viability,NCI-H838; first compound 2 µM,0.815
same,relative viability,NCI-H838; first compound 6.325 µM,0.672
same,relative viability,NCI-H838; first compound 20 µM,0.183
same,relative viability,HCC-15; first compound 0.2 µM,0.844
same,relative viability,HCC-15; first compound 0.6325 µM,0.554
same,relative viability,HCC-15; first compound 2 µM,0.98
same,relative viability,HCC-15; first compound 6.325 µM,0.415
same,relative viability,HCC-15; first compound 20 µM,0.102
same,relative viability,NCI-H1792; first compound 0.2 µM,0.861
same,relative viability,NCI-H1792; first compound 0.6325 µM,0.897
same,relative viability,NCI-H1792; first compound 2 µM,0.983
same,relative viability,NCI-H1792; first compound 6.325 µM,0.527
same,relative viability,NCI-H1792; first compound 20 µM,0.294
same,relative viability,LC-2-ad; first compound 0.2 µM,0.938
same,relative viability,LC-2-ad; first compound 0.6325 µM,0.506
same,relative viability,LC-2-ad; first compound 2 µM,0.888
same,relative viability,LC-2-ad; first compound 6.325 µM,0.352
same,relative viability,LC-2-ad; first compound 20 µM,0.132
